# According to US20240148821A1, “PHARMACEUTICAL USE OF CYCLIC PEPTIDE COMPOUND” (CHUGAI SEIYAKU KABUSHIKI KAISHA, priority 2021, published 2024):
# Numbered stars: 1 amine (or outer) side, 2 acyl side, 3 side chain; on linkers, the order of the positions; unused ones are H or OH. Bridge positions count the residues as written; N and C are the ends. Square brackets hold non-standard residues; d marks the D form. Peptide text beside a SMILES is read from it. * marks the point of attachment. hPhe(3,5-F2-4-CF3) = N[C@@H](CCc1cc(F)c(C(F)(F)F)c(F)c1)C(=O)O; hPhe(3-Cl-4-CF3) = N[C@@H](CCc1ccc(C(F)(F)F)c(Cl)c1)C(=O)O; ACHC(1R,2R) = O=C([C@@H]1CCCC[C@H]1N[*:1])[*:2]; NEtPhe(4-Me) = CCN[C@@H](Cc1ccc(C)cc1)C(=O)O; NMePhe(4-F) = CN[C@@H](Cc1ccc(F)cc1)C(=O)O; NMeGly(cPent) = CN[C@H](C(=O)O)C1CCCC1; NMeCha = CN[C@@H](CC1CCCCC1)C(=O)O; NMeGly(cPr) = CN[C@H](C(=O)O)C1CC1; NMehLeu = CN[C@@H](CCC(C)C)C(=O)O; NMeChg = CN[C@H](C(=O)O)C1CCCCC1; NMeI = CC[C@H](C)[C@H](NC)C(=O)O; NMeD = CN[C@@H](CC(=O)O)C(=O)O; NMeL = CN[C@@H](CC(C)C)C(=O)O; NMeV = CN[C@H](C(=O)O)C(C)C; d(β3hA) = C[C@@H](N)CC(=O)O; NMeS = CN[C@@H](CO)C(=O)O; NMeA = CN[C@@H](C)C(=O)O; Piperidide = C1CCN(*)CC1; dNMeA = CN[C@H](C)C(=O)O; Ac5c = NC1(C(=O)O)CCCC1; Aze = O=C(O)[C@@H]1CCN1; Cyclobutyl = C1CC(*)C1; Sar = CNCC(=O)O
# Tested on: Human pancreatic cancer cell line AsPC-1 (G12D mutation Kras)
# Assay: AsPC-1 cell growth inhibition (AsPC-1 CGI)
# Assay type: cell-based
# Conditions: read-out: AsPC-1 cell growth inhibition, 50% growth inhibitory concentration (IC50 value); 96 hours, CellTiter-Glo, values classified in ranges
# Experimental: Test compounds were serially dilated with dimethyl sulfoxide, and 200 nL was then dispensed to a U-bottom 96-well plate using Labcyte Echo. […] The cell suspension was dispensed to a. plate containing a test compound at 100 μL per well and incubated at 37° C. in a 5% carbon dioxide gas incubator. 96 hours later, 80 μL of CellTiter-Glo (Promega) was added to each well and fluorescence was measured.
row,SMILES,IC50 [nM]
1,CC[C@H](C)[C@@H]1NC(=O)[C@H](C2CC2)N(C)C(=O)C[C@@H](C)NC(=O)[C@H](C(C)C)N(C)C(=O)C2(CCCC2)NC(=O)[C@@H]2CCCN2C(=O)[C@H](CCc2ccc(C(F)(F)F)c(Cl)c2)NC(=O)CN(C)C(=O)[C@H](CC2CCCCC2)N(C)C(=O)[C@@H]2CCN2C(=O)[C@H](C)N(C)C1=O [Compound 565] (cyclo([Ac5c][NMeV][d(β3hA)][NMeGly(cPr)]I[NMeA][Aze][NMeCha][Sar][hPhe(3-Cl-4-CF3)]P)),> 500
2,"CC[C@H](C)[C@@H]1NC(=O)[C@H](CC(C)C)NC(=O)[C@@H]2CCCC[C@H]2NC(=O)[C@H](C(C)C)N(C)C(=O)C2(CCCC2)NC(=O)[C@@H]2CCCN2C(=O)[C@H](CCc2ccc(C(F)(F)F)c(Cl)c2)NC(=O)CN(C)C(=O)[C@H](CC2CCCCC2)N(C)C(=O)CN(C)C(=O)CN(C)C1=O [Compound 569] (cyclo([Ac5c][NMeV][ACHC(1R,2R)]LI[Sar][Sar][NMeCha][Sar][hPhe(3-Cl-4-CF3)]P))",> 500
3,CC[C@H](C)[C@@H]1NC(=O)[C@H](C2CCCC2)N(C)C(=O)C[C@@H](C)NC(=O)[C@H](C(C)C)N(C)C(=O)C2(CCCC2)NC(=O)[C@@H]2CCCN2C(=O)[C@H](CCc2ccc(C(F)(F)F)c(Cl)c2)NC(=O)CN(C)C(=O)[C@H](CC2CCCCC2)N(C)C(=O)[C@@H]2CCN2C(=O)[C@H](C)N(C)C1=O [Compound 570] (cyclo([Ac5c][NMeV][d(β3hA)][NMeGly(cPent)]I[NMeA][Aze][NMeCha][Sar][hPhe(3-Cl-4-CF3)]P)),> 500
4,"CC[C@H](C)[C@@H]1NC(=O)[C@H](CC(C)C)N(C)C(=O)C[C@@H](C(=O)N(C)C)N(C)C(=O)[C@H]([C@@H](C)CC)N(C)C(=O)C2(CCCC2)NC(=O)[C@@H]2CCCN2C(=O)[C@H](CCc2cc(F)c(C(F)(F)F)c(F)c2)NC(=O)CN(C)C(=O)[C@H](Cc2ccc(C)cc2)N(CC)C(=O)[C@@H]2CCN2C(=O)[C@H](C)N(C)C1=O [Compound 571] ([NMeL]I[NMeA][Aze][NEtPhe(4-Me)][Sar][hPhe(3,5-F2-4-CF3)]P[Ac5c][NMeI][NMeD]-NMe2; lactam N-11)",≤ 20
5,CC[C@H](C)[C@@H]1NC(=O)[C@H](CC(C)C)N(C)C(=O)C[C@@H](C(=O)N2CCCCC2)N(C)C(=O)[C@H](CC2CCCCC2)N(C)C(=O)C2(CCCC2)NC(=O)[C@@H]2CCCN2C(=O)[C@H](CCc2ccc(C(F)(F)F)c(Cl)c2)NC(=O)CN(C)C(=O)[C@H](CC2CCCCC2)N(C)C(=O)CN(C)C(=O)CN(C)C1=O [Compound 577] ([NMeL]I[Sar][Sar][NMeCha][Sar][hPhe(3-Cl-4-CF3)]P[Ac5c][NMeCha][NMeD]-Piperidide; lactam N-11),> 500
6,CC[C@H](C)[C@@H]1NC(=O)[C@H](C)N(C)C(=O)C[C@@H](C)NC(=O)[C@H](C2CCCC2)N(C)C(=O)C2(CCCC2)NC(=O)[C@@H]2CCCN2C(=O)[C@H](CCc2ccc(C(F)(F)F)c(Cl)c2)NC(=O)[C@@H](C)N(C)C(=O)[C@H](Cc2ccc(F)cc2)N(C)C(=O)[C@@H]2CCN2C(=O)[C@H](C)N(C)C1=O [Compound 584] (cyclo([Ac5c][NMeGly(cPent)][d(β3hA)][NMeA]I[NMeA][Aze][NMePhe(4-F)][dNMeA][hPhe(3-Cl-4-CF3)]P)),> 500
7,CC[C@H](C)[C@@H]1NC(=O)[C@H](CC(C)C)N(C)C(=O)C[C@@H](C(=O)N2CCCCC2)N(C)C(=O)[C@H](COC2CCC2)N(C)C(=O)C2(CCCC2)NC(=O)[C@@H]2CCCN2C(=O)[C@H](CCc2ccc(C(F)(F)F)c(Cl)c2)NC(=O)CN(C)C(=O)[C@H](CC2CCCCC2)N(C)C(=O)CN(C)C(=O)CN(C)C1=O [Compound 585] ([NMeL]I[Sar][Sar][NMeCha][Sar][hPhe(3-Cl-4-CF3)]P[Ac5c][NMeS](Cyclobutyl)[NMeD]-Piperidide; lactam N-11),> 500
8,CC[C@H](C)[C@@H]1NC(=O)[C@H](CC(C)C)N(C)C(=O)C[C@@H](C)NC(=O)[C@H](CCC(C)C)N(C)C(=O)C2(CCCC2)NC(=O)[C@@H]2CCCN2C(=O)[C@H](CCc2ccc(C(F)(F)F)c(Cl)c2)NC(=O)CN(C)C(=O)[C@H](CC2CCCCC2)N(C)C(=O)CN(C)C(=O)CN(C)C1=O [Compound 586] (cyclo([Ac5c][NMehLeu][d(β3hA)][NMeL]I[Sar][Sar][NMeCha][Sar][hPhe(3-Cl-4-CF3)]P)),> 500
9,CC[C@H](C)[C@@H]1NC(=O)[C@H](CC(C)C)N(C)C(=O)C[C@@H](C(=O)N2CCCCC2)N(C)C(=O)[C@H](C2CCCCC2)N(C)C(=O)[C@H](C)NC(=O)[C@@H]2CCCN2C(=O)[C@H](CCc2ccc(C(F)(F)F)c(Cl)c2)NC(=O)CN(C)C(=O)[C@H](CC2CCCCC2)N(C)C(=O)CN(C)C(=O)CN(C)C1=O [Compound 591] ([NMeL]I[Sar][Sar][NMeCha][Sar][hPhe(3-Cl-4-CF3)]PA[NMeChg][NMeD]-Piperidide; lactam N-11),> 500
